Measured values from ChEMBL document CHEMBL4382216, “Asymmetric synthesis and biological evaluation of imidazole- and oxazole-containing synthetic lipoxin A4 mimetics (sLXms)” (Eur J Med Chem, 2019).
pIC50: −log10 of the molar value. Active and inactive are the calls of the source. No cut-off for these calls is given here.

Experiments:
[1] = target: T1, N-formyl peptide receptor 2 (Homo sapiens, UniProt P25090); experiment: Agonist activity at ALX/FPR2 in human THP1 cells harboring NF-kB-Luc assessed as inhibition of LPS-induced NFkB signalling activation by measuring reduction in IL-6 secretion pretreated for 30 mins followed by LPS stimulation for 24 hrs by electrochemiluminescence assay; type: cell-based; conditions: read-out: IC50
T1 sequence (P25090 whole entry): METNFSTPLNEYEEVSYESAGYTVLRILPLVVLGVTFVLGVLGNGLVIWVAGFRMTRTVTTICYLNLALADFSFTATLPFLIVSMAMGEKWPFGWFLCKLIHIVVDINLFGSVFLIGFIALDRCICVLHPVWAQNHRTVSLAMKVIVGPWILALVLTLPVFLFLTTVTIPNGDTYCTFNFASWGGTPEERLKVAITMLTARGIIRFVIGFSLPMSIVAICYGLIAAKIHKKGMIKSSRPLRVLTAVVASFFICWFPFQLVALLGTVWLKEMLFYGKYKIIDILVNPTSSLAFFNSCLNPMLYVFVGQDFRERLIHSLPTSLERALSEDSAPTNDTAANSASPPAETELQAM

[2] = target: T2, N-formyl peptide receptor 2 (Homo sapiens) (UniProt P25090); experiment: Agonist activity at ALX/FPR2 in human THP1 cells harboring NF-kB-Luc assessed as inhibition of LPS-induced NFkB signalling activation by measuring IFNgamma secretion at 10^-9 M pretreated for 30 mins followed by LPS stimulation for 24 hrs by electrochemiluminescence assay; type: cell-based; parameters: scale not given: the % may be the effect or the level left
T2 sequence (whole entry): T1 sequence (P25090 whole entry)

[3] = target: T2, N-formyl peptide receptor 2 (Homo sapiens); experiment: Agonist activity at ALX/FPR2 in human THP1 cells harboring NF-kB-Luc assessed as inhibition of LPS-induced NFkB signalling activation by measuring NF-kB activation level at 10^-11 M pretreated for 30 mins followed by LPS stimulation for 24 hrs by luciferase reporter gene assay; type: cell-based; parameters: scale not given: the % may be the effect or the level left
[4] = target: T1, N-formyl peptide receptor 2; experiment: Agonist activity at ALX/FPR2 in human THP1 cells harboring NF-kB-Luc assessed as inhibition of LPS-induced NFkB signalling activation by measuring reduction in IL-1beta secretion pretreated for 30 mins followed by LPS stimulation for 24 hrs by electrochemiluminescence assay; type: cell-based; conditions: read-out: IC50
[5] = target: T2, N-formyl peptide receptor 2 (Homo sapiens); experiment: Agonist activity at ALX/FPR2 (unknown origin) expressed in HEK293 cells co-expressing Galphaq assessed as induction of intracellular calcium accumulation at 0.01 nM to 100 nM by Fluo-4 dye based fluorescence spectrophotometric assay; type: functional, cell-based
[6] = target: T1, N-formyl peptide receptor 2; experiment: Agonist activity at ALX/FPR2 in human THP1 cells harboring NF-kB-Luc assessed as inhibition of LPS-induced NFkB signalling activation by measuring reduction in IL-12p70 secretion pretreated for 30 mins followed by LPS stimulation for 24 hrs by electrochemiluminescence assay; type: cell-based; conditions: read-out: IC50
HEK293 = experiment: Induction of intracellular calcium accumulation in HEK293 cells at 0.01 nM to 100 nM by Fluo-4 dye based fluorescence spectrophotometric assay; type: functional, cell-based; conditions: Homo sapiens
[7] = target: T2, N-formyl peptide receptor 2 (Homo sapiens); experiment: Agonist activity at ALX/FPR2 in human THP1 cells harboring NF-kB-Luc assessed as inhibition of LPS-induced NFkB signalling activation by measuring NF-kB activation level at 10^-7 M pretreated for 30 mins followed by LPS stimulation for 24 hrs by luciferase reporter gene assay; type: cell-based; parameters: scale not given: the % may be the effect or the level left
[8] = target: T2, N-formyl peptide receptor 2 (Homo sapiens); experiment: Agonist activity at ALX/FPR2 in human THP1 cells harboring NF-kB-Luc assessed as inhibition of LPS-induced NFkB signalling activation by measuring IL-1beta secretion at 10^-11 M pretreated for 30 mins followed by LPS stimulation for 24 hrs by electrochemiluminescence assay; type: cell-based; parameters: scale not given: the % may be the effect or the level left
[9] = target: T2, N-formyl peptide receptor 2 (Homo sapiens); experiment: Agonist activity at ALX/FPR2 in human THP1 cells harboring NF-kB-Luc assessed as inhibition of LPS-induced NFkB signalling activation by measuring IL-1beta secretion at 10^-9 M pretreated for 30 mins followed by LPS stimulation for 24 hrs by electrochemiluminescence assay; type: cell-based; parameters: scale not given: the % may be the effect or the level left
[10] = target: T2, N-formyl peptide receptor 2 (Homo sapiens); experiment: Agonist activity at ALX/FPR2 in human THP1 cells harboring NF-kB-Luc assessed as inhibition of LPS-induced NFkB signalling activation by measuring IFNgamma secretion at 10^-7 M pretreated for 30 mins followed by LPS stimulation for 24 hrs by electrochemiluminescence assay; type: cell-based; parameters: scale not given: the % may be the effect or the level left
Mus musculus [11] = experiment: (§1) Anti-inflammatory activity in zymosan-induced C57BL/6J mouse peritonitis model assessed as PMN leukocytes level in peritoneal cavity at 43 ng, ip pretreated for 30 mins followed by zymosan treatment and redosing of test compound at 1 hr post zymosan addition and measured at 24 hrs post zymosan addition by flow cytometry (reference value: 100%); type: functional
THP-1 [12] = experiment: Cytotoxicity against human THP1 cells harboring NFkB-Luc assessed as LDH release at 10'10 M after 24 hrs by spectrophotometric method relative to control; type: cell-based; conditions: thp-1, 24 h
THP-1 [13] = experiment: Cytotoxicity against human THP1 cells harboring NFkB-Luc assessed as LDH release at 10'7 M after 24 hrs by spectrophotometric method relative to control; type: cell-based; conditions: thp-1, 24 h
Homo sapiens [14] = organism: Homo sapiens; experiment: Activation of Luc-fused NFkB (unknown origin) expressed in non-stimulated human THP1 cells assessed as relative luminescence unit at 10^-11 M after 24 hrs by luciferase reporter gene assay (reference value: 100%); type: cell-based
Homo sapiens [15] = organism: Homo sapiens; experiment: Activation of Luc-fused NFkB (unknown origin) expressed in non-stimulated human THP1 cells assessed as relative luminescence unit at 10^-6 M after 24 hrs by luciferase reporter gene assay (reference value: 100%); type: cell-based
Homo sapiens [16] = organism: Homo sapiens; experiment: Activation of Luc-fused NFkB (unknown origin) expressed in non-stimulated human THP1 cells assessed as relative luminescence unit at 10^-12 M after 24 hrs by luciferase reporter gene assay (reference value: 100%); type: cell-based
Homo sapiens [17] = organism: Homo sapiens; experiment: Activation of Luc-fused NFkB (unknown origin) expressed in non-stimulated human THP1 cells assessed as relative luminescence unit at 10^-8 M after 24 hrs by luciferase reporter gene assay (reference value: 100%); type: cell-based
THP-1 [18] = experiment: Cytotoxicity against human THP1 cells harboring NFkB-Luc assessed as LDH release at 10'11 M after 24 hrs by spectrophotometric method relative to control; type: cell-based; conditions: thp-1, 24 h
THP-1 [19] = experiment: Cytotoxicity against human THP1 cells harboring NFkB-Luc assessed as LDH release at 10'6 M after 24 hrs by spectrophotometric method relative to control; type: cell-based; conditions: thp-1, 24 h
THP-1 [20] = experiment: Cytotoxicity against human THP1 cells harboring NFkB-Luc assessed as LDH release at 10'9 M after 24 hrs by spectrophotometric method relative to control; type: cell-based; conditions: thp-1, 24 h
THP-1 [21] = experiment: Cytotoxicity against human THP1 cells harboring NFkB-Luc assessed as LDH release at 10'8 M after 24 hrs by spectrophotometric method relative to control; type: cell-based; conditions: thp-1, 24 h
Mus musculus [22] = experiment: as §1, with “reduction in total cell count” for “PMN leukocytes level”, “cytometry relative to basal level” for “cytometry”, “14)” for “100%)”; type: functional
Homo sapiens [23] = organism: Homo sapiens; experiment: Activation of Luc-fused NFkB (unknown origin) expressed in non-stimulated human THP1 cells assessed as relative luminescence unit at 10^-10 M after 24 hrs by luciferase reporter gene assay (reference value: 100%); type: cell-based
Homo sapiens [24] = organism: Homo sapiens; experiment: Activation of Luc-fused NFkB (unknown origin) expressed in non-stimulated human THP1 cells assessed as relative luminescence unit at 10^-7 M after 24 hrs by luciferase reporter gene assay (reference value: 100%); type: cell-based

## CCCCC[C@H](O)/C=C/C=C\C=C\C=C\[C@@H](O)[C@@H](O)CCCC(=O)O [LIPOXIN A4]
[1]
  pIC50: 8.77
[2]
  Activity: 36.1%
[3]
  Activity: 95.5%
[4]
  pIC50: 8.74
[5]
  Activity: Active
[6]
  pIC50: 7.93
HEK293
  Activity: inactive
[7]
  Activity: 76%
[8]
  Activity: 6.6%
[9]
  Activity: 4.3%
[10]
  Activity: 32%

## CCCCC[C@@H](O)c1nc(-c2ccccc2)n(-c2ccccc2)c1/C=C/[C@@H](O)[C@@H](O)CCCC(=O)OC
[1]
  pIC50: 9.30
Mus musculus [11]
  Emax: 45.5%
THP-1 [12]
  fold change (FC): 0.6
THP-1 [13]
  fold change (FC): 1.1
Homo sapiens [14]
  Activity: 1.5%
[2]
  Activity: 71.4%
Homo sapiens [15]
  Activity: 1.2%
[3]
  Activity: 94.3%
Homo sapiens [16]
  Activity: 1.7%
Homo sapiens [17]
  Activity: 1.2%
THP-1 [18]
  fold change (FC): 0.5
[4]
  pIC50: 8.85
THP-1 [19]
  fold change (FC): 1.1
THP-1 [20]
  fold change (FC): 0.8
THP-1 [21]
  fold change (FC): 0.9
Mus musculus [22]
  fold change (FC): 6
[6]
  pIC50: 8.00
Homo sapiens [23]
  Activity: 1.5%
[7]
  Activity: 88.2%
[8]
  Activity: 49.6%
[9]
  Activity: 50.3%
Homo sapiens [24]
  Activity: 0.8%
[10]
  Activity: 95%

## CCCCC[C@H](O)c1nc(-c2ccccc2)n(-c2ccccc2)c1/C=C/[C@@H](O)[C@@H](O)CCCC(=O)OC
[1]
  pIC50: 7.92
Mus musculus [11]
  Emax: 18.2%
THP-1 [12]
  fold change (FC): 0.6
THP-1 [13]
  fold change (FC): 1.4
Homo sapiens [14]
  Activity: 1.4%
[2]
  Activity: 68.4%
Homo sapiens [15]
  Activity: 1.3%
[3]
  Activity: 83.4%
Homo sapiens [16]
  Activity: 1.3%
Homo sapiens [17]
  Activity: 1.2%
THP-1 [18]
  fold change (FC): 0.6
[4]
  pIC50: 9.00
[5]
  Activity: Active
THP-1 [19]
  fold change (FC): 1.6
THP-1 [20]
  fold change (FC): 0.8
THP-1 [21]
  fold change (FC): 1
Mus musculus [22]
  fold change (FC): 3
[6]
  pIC50: 9.00
HEK293
  Activity: inactive
Homo sapiens [23]
  Activity: 1.7%
[7]
  Activity: 82.2%
[8]
  Activity: 50.3%
[9]
  Activity: 57.8%
Homo sapiens [24]
  Activity: 0.9%
[10]
  Activity: 129%
